According to patent publication US11208386B2, “Inhibitors of protein arginine deiminases (PADs) and methods of preparation and use thereof” (University of Massachusetts, priority 2016, dated 2021):

Key:
Format in all cases: biochemical
[1] = target: T1, PAD4 (Homo sapiens, UniProt Q9UM07); assay: Inactivation kinetics, PAD4; details: for kinact/KI: a: single kobs determined, b: from a linear fit; for Fold PAD4 Selectivity: kinact/KI relative to least inhibited isozyme (1.0)
T1 construct: made in house
T1 sequence (Q9UM07 whole entry): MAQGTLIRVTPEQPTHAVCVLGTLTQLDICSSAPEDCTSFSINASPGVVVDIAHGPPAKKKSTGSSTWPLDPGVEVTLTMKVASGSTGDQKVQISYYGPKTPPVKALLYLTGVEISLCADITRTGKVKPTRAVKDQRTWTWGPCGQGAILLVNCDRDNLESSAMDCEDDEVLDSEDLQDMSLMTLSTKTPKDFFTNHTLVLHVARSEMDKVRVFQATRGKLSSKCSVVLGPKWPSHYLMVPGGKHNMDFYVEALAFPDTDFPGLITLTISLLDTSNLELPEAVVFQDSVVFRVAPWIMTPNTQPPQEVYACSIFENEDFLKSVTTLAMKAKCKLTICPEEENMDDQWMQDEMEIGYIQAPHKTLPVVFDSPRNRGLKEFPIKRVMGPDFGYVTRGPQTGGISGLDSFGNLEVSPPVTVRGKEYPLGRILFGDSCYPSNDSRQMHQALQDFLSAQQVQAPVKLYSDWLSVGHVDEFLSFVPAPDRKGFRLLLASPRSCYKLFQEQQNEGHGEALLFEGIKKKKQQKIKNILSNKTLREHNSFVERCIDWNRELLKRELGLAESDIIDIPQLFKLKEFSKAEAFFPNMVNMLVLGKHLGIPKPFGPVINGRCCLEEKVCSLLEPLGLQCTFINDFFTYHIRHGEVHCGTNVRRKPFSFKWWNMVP
Procedure: (§1) Inactivation kinetic parameters were determined by incubating PAD1, 2, or 4 (2.0 μM) or PAD3 (5.0 μM) in a pre-warmed (10 min; 37° C.) inactivation mixture (50 mM HEPES, 10 mM CaCl2, and 2 mM DTT, pH 7.6, with a final volume of 60 μL) containing various concentrations of inhibitor. Aliquots were removed at various time points and added to a pre-warmed (10 min, 37° C.) reaction mixture (50 mM HEPES, 50 mM NaCl, 10 mM CaC2, 2 mM DTT, and 10 mM BAEE or 10 mM BAA in the case of PAD3; pH 7.6). After 15 min, reactions were quenched in liquid nitrogen and citrulline production quantified using the COLDER assay. […] In Vitro Labeling of PADs with “Clickable” Probes BB-F-Yne (5u), BB-Cl-Yne (5v) and BIFYne (5w)

[2] = target: T2, PAD3 (Homo sapiens, UniProt Q9ULW8); assay: Inactivation kinetics, PAD3; details: for kinact/KI: a: single kobs determined; for Fold PAD3 Selectivity: kinact/KI relative to least inhibited isozyme (1.0)
T2 construct: made in house
T2 sequence (Q9ULW8 1-664): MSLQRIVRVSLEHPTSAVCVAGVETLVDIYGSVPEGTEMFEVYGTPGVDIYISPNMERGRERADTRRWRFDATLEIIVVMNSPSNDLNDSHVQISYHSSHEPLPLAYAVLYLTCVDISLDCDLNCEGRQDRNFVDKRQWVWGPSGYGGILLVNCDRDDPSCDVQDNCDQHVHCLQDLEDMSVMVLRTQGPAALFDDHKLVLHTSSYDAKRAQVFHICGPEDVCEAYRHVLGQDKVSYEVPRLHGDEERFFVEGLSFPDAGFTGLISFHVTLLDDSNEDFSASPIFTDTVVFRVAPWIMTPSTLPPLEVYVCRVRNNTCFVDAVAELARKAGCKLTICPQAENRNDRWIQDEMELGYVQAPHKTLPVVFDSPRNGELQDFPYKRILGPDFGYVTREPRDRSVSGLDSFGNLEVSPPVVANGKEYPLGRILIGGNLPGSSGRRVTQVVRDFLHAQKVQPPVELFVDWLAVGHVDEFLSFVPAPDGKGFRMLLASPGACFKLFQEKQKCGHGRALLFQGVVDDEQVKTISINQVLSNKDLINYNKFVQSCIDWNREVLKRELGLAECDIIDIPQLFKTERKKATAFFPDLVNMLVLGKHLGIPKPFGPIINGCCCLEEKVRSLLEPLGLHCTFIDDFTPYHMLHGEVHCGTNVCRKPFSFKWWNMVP
Procedure: as §1

[3] = target: T3, PAD2 (Homo sapiens, UniProt Q9Y2J8); assay: Inactivation kinetics, PAD2; details: for kinact/KI: a: single kobs determined, b: from a linear fit, other footnotes: from kinact and KI; for Fold PAD2 Selectivity: kinact/KI relative to least inhibited isozyme (1.0)
T3 construct: made in house
T3 sequence (Q9Y2J8 whole entry): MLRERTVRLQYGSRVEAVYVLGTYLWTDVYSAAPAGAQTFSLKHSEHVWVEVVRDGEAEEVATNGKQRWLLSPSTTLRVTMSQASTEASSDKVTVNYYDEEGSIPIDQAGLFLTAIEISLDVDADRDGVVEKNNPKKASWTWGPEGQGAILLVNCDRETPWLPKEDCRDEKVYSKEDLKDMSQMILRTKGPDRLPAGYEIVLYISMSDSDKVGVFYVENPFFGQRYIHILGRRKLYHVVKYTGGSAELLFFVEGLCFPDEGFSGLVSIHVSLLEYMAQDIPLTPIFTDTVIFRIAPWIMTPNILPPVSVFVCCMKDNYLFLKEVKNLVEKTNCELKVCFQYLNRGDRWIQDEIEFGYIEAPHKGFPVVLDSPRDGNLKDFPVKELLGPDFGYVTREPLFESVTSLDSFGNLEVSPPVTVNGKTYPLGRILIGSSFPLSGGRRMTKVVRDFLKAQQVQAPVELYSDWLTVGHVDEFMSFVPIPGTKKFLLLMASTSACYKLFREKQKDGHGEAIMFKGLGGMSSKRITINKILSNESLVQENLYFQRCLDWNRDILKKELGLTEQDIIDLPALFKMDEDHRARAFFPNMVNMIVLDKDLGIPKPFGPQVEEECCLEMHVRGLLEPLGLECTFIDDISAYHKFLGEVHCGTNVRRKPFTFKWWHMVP
Procedure: as §1

[4] = target: T4, PAD1 (Homo sapiens, UniProt Q9ULC6); assay: Inactivation kinetics, PAD1; details: for kinact/KI: a: single kobs determined, b: from a linear fit; for Fold PAD1 Selectivity: kinact/KI relative to least inhibited isozyme (1.0)
T4 construct: made in house
T4 sequence (Q9ULC6 1-663): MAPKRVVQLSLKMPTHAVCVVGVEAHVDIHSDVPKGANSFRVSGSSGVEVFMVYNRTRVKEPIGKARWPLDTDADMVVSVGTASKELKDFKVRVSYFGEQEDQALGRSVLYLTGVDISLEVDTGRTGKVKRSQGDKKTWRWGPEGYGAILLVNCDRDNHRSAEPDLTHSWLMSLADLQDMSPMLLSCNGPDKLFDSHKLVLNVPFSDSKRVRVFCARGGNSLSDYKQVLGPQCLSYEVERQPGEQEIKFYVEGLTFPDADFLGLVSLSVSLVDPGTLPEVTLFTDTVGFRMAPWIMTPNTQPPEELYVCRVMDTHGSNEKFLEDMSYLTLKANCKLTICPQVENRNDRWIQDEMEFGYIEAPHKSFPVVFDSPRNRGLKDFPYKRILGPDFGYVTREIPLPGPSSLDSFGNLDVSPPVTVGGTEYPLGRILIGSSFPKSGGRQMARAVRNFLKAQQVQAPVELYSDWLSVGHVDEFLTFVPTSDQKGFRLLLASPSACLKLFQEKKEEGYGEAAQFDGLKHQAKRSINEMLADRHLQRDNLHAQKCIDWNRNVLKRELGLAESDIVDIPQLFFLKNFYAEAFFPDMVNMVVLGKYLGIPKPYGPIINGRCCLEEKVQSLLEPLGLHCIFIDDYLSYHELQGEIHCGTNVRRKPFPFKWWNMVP
Procedure: as §1

| Structure (SMILES) | kinact/KI [1] [M⁻¹ s⁻¹] | Fold PAD4 Selectivity [1] [fold] | kinact/KI [2] [M⁻¹ s⁻¹] | Fold PAD3 Selectivity [2] [fold] | kinact/KI [3] [M⁻¹ s⁻¹] | Fold PAD2 Selectivity [3] [fold] | kinact/KI [4] [M⁻¹ s⁻¹] | Fold PAD1 Selectivity [4] [fold] |
| --- | --- | --- | --- | --- | --- | --- | --- | --- |
| CCn1c([C@H](CCCNC(=N)CF)NC(=O)c2ccc(-c3ccccc3)cc2)nc2ccccc21 [Compound 5i, N1-[1,4′-Phenyl]benzoyl-N5-(2-fluoro-1-iminoethyl)-1-(1-ethyl-benzo[d]imidazol-2-yl)-L-omithine] | 0.5 | 1.0 | 30 | 60 | 19.3 | 39 | 12.7 | 25 |
| CCn1c([C@H](CCCNC(=N)CCl)NC(=O)c2ccc(-c3ccccc3)cc2)nc2ccccc21 [Compound 5j, N1-[1,4′-Phenyl]benzoyl-N5-(2-chloro-1-iminoethyl)-1-(1-ethyl-benzo[d]imidazol-2-yl)-L-ornithine] | 69.2 | 1.0 | 284 | 4.1 | 80.8 | 1.2 | 84.3 | 1.2 |
| CC(C)n1c([C@H](CCCNC(=N)CF)NC(=O)c2ccc(-c3ccccc3)cc2)nc2ccccc21 [Compound 5k, N1-[1,4′-Phenyl]benzoyl-N5-(2-fluoro-1-iminoethyl)-1-(1-isopropyl-benzo[d]imidazol-2-yl)-L-ornithine] | 0.333 | 1.0 | 28.3 | 85 | 11.3 | 34 | 0.333 | 1.0 |
| CC(C)n1c([C@H](CCCNC(=N)CCl)NC(=O)c2ccc(-c3ccccc3)cc2)nc2ccccc21 [Compound 5l, N1-[1,4′-Phenyl]benzoyl-N5-(2-chloro-1-iminoethyl)-1-(1-isopropyl-benzo[d]imidazol-2-yl)-L-ornithine] | 15.8 | 1.0 | 192 | 12 | 24.8 | 1.6 | 20.3 | 1.3 |
| COc1cccc2c1nc([C@H](CCCNC(=N)CF)NC(=O)c1ccc(-c3ccccc3)cc1)n2C [Compound 5m, N1-[1,4′-Phenyl]benzoyl-N5-(2-fluoro-1-iminoethyl)-1-(4-methoxy-1-methyl-benzo[d]imidazol-2-yl)-L-omithine] | 13.2 | 1.0 | 48.3 | 3.7 | 132 | 10 | 31.2 | 2.4 |
| COc1cccc2c1nc([C@H](CCCNC(=N)CCl)NC(=O)c1ccc(-c3ccccc3)cc1)n2C [Compound 5n, N1-[1,4′-Phenyl]benzoyl-N5-(2-chloro-1-iminoethyl)-1-(4-methoxy-1-methyl-benzo[d]imidazol-2-yl)-L-ornithine] | 132 | 1.4 | 91.7 | 1.0 | 463 | 5.1 | 580 | 6.3 |
| N=C(CF)NCCC[C@H](NC(=O)c1ccc(-c2ccc(F)cc2)cc1)c1nc2ccccc2[nH]1 [Compound 5o] | 53.3 | 2.3 | 27 | 1.2 | 28.3 | 1.2 | 23.3 | 1.0 |
| N=C(CCl)NCCC[C@H](NC(=O)c1ccc(-c2ccc(F)cc2)cc1)c1nc2ccccc2[nH]1 [Compound 5p, N1-4′-F-[1,1′-Phenyl]benzol-N5-(2-chloro-1-iminoethyl)-1-(1H-benzo[d]imidazol-2-yl)-L-ornithine] | 280 | 3.1 | 176 | 1.9 | 91.7 | 1.0 | 343 | 3.7 |

Now from value to compound:

| kinact/KI [1] [M⁻¹ s⁻¹] | Fold PAD4 Selectivity [1] [fold] | kinact/KI [2] [M⁻¹ s⁻¹] | Fold PAD3 Selectivity [2] [fold] | kinact/KI [3] [M⁻¹ s⁻¹] | Fold PAD2 Selectivity [3] [fold] | kinact/KI [4] [M⁻¹ s⁻¹] | Fold PAD1 Selectivity [4] [fold] | Structure (SMILES) |
| --- | --- | --- | --- | --- | --- | --- | --- | --- |
| 60 | 2.4 | 25.5 | 1.0 | 26.2 | 1.0 | 31 | 1.2 | N=C(CF)NCCC[C@H](NC(=O)c1ccc(-c2ccccc2)cc1)c1nc2cc(F)c(F)cc2[nH]1 [Compound 5q, N1-[1,1′-Phenyl]benzoyl-N5-(2-fluoro-1-iminoethyl)-1-(5,6-difluoro-1H-benzo[d]imidazol-2-yl)-L-ornithine] |
| 337 | 3.6 | 239 | 2.6 | 93.3 | 1.0 | 457 | 4.9 | N=C(CCl)NCCC[C@H](NC(=O)c1ccc(-c2ccccc2)cc1)c1nc2cc(F)c(F)cc2[nH]1 [Compound 5r, N1-[1,1′-Phenyl]benzoyl-N5-(2-chloro-1-iminoethyl)-1-(5,6-difluoro-1H-benzo[d]imidazol-2-yl)-L-ornithine] |
| 67.3 | 3.7 | 18.3 | 1.0 | 23.7 | 1.3 | 29.8 | 1.6 | N=C(CF)NCCC[C@H](NC(=O)c1ccc(-c2ccc(F)cc2)cc1)c1nc2cc(F)c(F)cc2[nH]1 [Compound 5s, N1-4′-F-[1,1′-Phenyl]benzoyl-N5-(2-fluoro-1-iminoethyl)-1-(5,6-difluoro-1H-benzo[d]imidazol-2-yl)-L-omithine] |
| 354 | 3.7 | 120 | 1.3 | 95.5 | 1.0 | 508 | 5.3 | N=C(CCl)NCCC[C@H](NC(=O)c1ccc(-c2ccc(F)cc2)cc1)c1nc2cc(F)c(F)cc2[nH]1 [Compound 5t, N1-4′-F-[1,1′-Phenyl]benzoyl-N5-(2-chloro-1-iminoethyl)-1-(5,6-difluoro-1H-benzo[d]imidazol-2-yl)-L-omithine] |
| 21.7 | 3.5 | 6.25 | 1.0 | 14.6 | 2.3 | 6.92 | 1.1 | C#Cc1ccc(-c2ccc(C(=O)N[C@@H](CCCNC(=N)CCl)c3nc4ccccc4[nH]3)cc2)cc1 [Compound 5v, N1-4′-ethynyl-[1,1′-Phenyl]benzol-N5-(2-chloro-1-iminoethyl)-1-(1H-benzo[d]imidazol-2-yl)-L-ornithine] |
| 405 | 16 | 108 | 4.3 | 25 | 1.0 | 275 | 11 | N=C(CF)NCCC[C@H](NC(=O)c1ccccc1C(=O)O)c1nc2ccccc2[nH]1 [Compound 6a, N1-(2-Carboxyl)benzol-N5-(2-fluoro-1-iminoethyl)-1-(1H-benzo[d]imidazol-2-yl)-L-ornithine] |
